Assay results as given in patent US11040066B2, “Topical composition for use in the treatment of burns” (Safeguard Medical Holdco, LLC, priority 2017, dated 2021).

Experiment: Gamma radiation resistance of gel formulas (Rounds 1-5)
Type: physicochemical
Settings: Round 1; summary in words
Description: Following several failed attempts to formulate a composition with suitable viscosity and other properties to function as a burn treatment, the Inventors obtained stable compositions which were sent for testing to assess stability under gamma radiation.
OVERVIEW: To incorporate: Polyaminopropyl biguanide (INCI name); Chemical name: Polyhexamethylene Biguanide Hydrochloride (PHMB) and later Oriel sea mineral complex into a gel formula that can withstand the impact of gamma radiation sterilisation.
5 rounds of formulas were sent out for gamma radiations as outlined below.
Round 1 Summary: Started with our current BD (Burn Dressing) Gel with hyaluronic acid (HA) formula to which various ingredients were added.
Carbopol is the thickening agent used in BD Gel with HA, the only experiment in round 1 to which PHMB was added.
Round 2 Summary: Since PHMB was incompatible with Carbopol, new formulas containing various other thickeners were tried. Since propylene glycol, a humectant helped, another humectant (propanediol) was tried. For all the experimental batches made, only the stable formulas were sent out for gamma radiation. Only some of round 2 formulas contain PHMB (20% solution) @0.2% […]
In round 5, the final formula was determined from a selection of which were sent out for gamma radiation with acceptable results. […]

**Q.** Which “Change following gamma radiation” value does the source give for `CC(O)CO` (stereo not shown) [propylene glycol, 1,2-Propanediol] here?
**A.** little or no change
